In patent publication US20200131156A1, “ARYLSULFONYLPYROLECARBOXAMIDE DERIVATIVES AS Kv3 POTASSIUM CHANNEL ACTIVATORS” (H. Lundbeck A/S, priority 2018, published 2020):

Biological target: T1, hKv3.1b (Homo sapiens, UniProt P48547)
T1 construct: expressed in transfected cells
T1 sequence (P48547 1-585 isoform P48547-2): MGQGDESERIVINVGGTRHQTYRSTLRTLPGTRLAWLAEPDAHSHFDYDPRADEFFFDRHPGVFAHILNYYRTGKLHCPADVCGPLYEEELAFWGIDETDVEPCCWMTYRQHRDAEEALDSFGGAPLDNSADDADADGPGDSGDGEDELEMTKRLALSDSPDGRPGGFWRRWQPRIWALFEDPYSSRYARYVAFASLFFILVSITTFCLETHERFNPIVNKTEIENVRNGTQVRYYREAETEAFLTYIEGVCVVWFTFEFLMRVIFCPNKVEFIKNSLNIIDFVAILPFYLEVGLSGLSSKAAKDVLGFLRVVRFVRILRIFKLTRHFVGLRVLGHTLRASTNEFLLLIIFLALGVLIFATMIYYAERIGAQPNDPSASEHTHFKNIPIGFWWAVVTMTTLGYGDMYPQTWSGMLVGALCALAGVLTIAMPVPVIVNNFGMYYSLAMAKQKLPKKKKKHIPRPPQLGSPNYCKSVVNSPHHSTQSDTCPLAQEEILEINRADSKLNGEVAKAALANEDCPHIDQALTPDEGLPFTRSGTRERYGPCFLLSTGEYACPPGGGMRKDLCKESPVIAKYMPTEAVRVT
Test: Automated patch clamp (QPatch-16x) on HEK-293 cells stably expressing hKv3.1b
Format: cell-based
Details: for ECdelta5 mV: concentration needed to shift the activation threshold 5 mV; for Threshold Shift: maximum absolute hyperpolarizing shift of activation threshold at tested concentrations 0.37-30 μM
Summary of the method: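 Whole-cell automated patch clamp, extracellular pH 7.4, 4 mM Na2ATP intracellular; holding −80 mV, 200 ms steps −70 to +10 mV. Five ascending concentrations (0.37–30 μM) per cell, ~3 min each, 0.33% DMSO vehicle. Activation threshold (5% of vehicle peak at 10 mV) shift fitted sigmoidally; ECdelta5 mV read from curve.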

| Structure (SMILES) | ECdelta5 mV | Threshold Shift |
| --- | --- | --- |
| COc1ncc(CNC(=O)c2ccn(S(=O)(=O)c3ccc(OC(F)F)cc3)c2)cn1 [Compound 112, 1-[4-(difluoromethoxy)benzene-1-sulfonyl]-N-[(2-methoxypyrimidin-5-yl)methyl]-1H-pyrrole-3-carboxamide] | 4100 nM | 17 mV |
| Cc1cnc(CNC(=O)c2ccn(S(=O)(=O)c3ccccc3)c2)c(Cl)n1 [Compound 113, 1-(benzenesulfonyl)-N-[(3-chloro-5-methylpyrazin-2-yl)methyl]-1H-pyrrole-3-carboxamide] | 3500 nM | 14 mV |
| Cc1ccc(S(=O)(=O)n2ccc(C(=O)NCc3cnc(C)s3)c2)cc1 [Compound 114, 1-(4-methylbenzene-1-sulfonyl)-N-[(2-methyl-1,3-thiazol-5-yl)methyl]-1H-pyrrole-3-carboxamide] | 1600 nM | 15 mV |
| Cc1ccc(S(=O)(=O)n2ccc(C(=O)NCc3nnc(C)s3)c2)cc1 [Compound 115, 1-(4-methylbenzene-1-sulfonyl)-N-[(5-methyl-1,3,4-thiadiazol-2-yl)methyl]-1H-pyrrole-3-carboxamide] | 2800 nM | 17 mV |
| Cc1ccc(S(=O)(=O)n2ccc(C(=O)NCc3cc(C)n[nH]3)c2)cc1 [Compound 116, 1-(4-methylbenzene-1-sulfonyl)-N-[(3-methyl-1H-pyrazol-5-yl)methyl]-1H-pyrrole-3-carboxamide] | 2600 nM | 25 mV |
| COc1ccc(S(=O)(=O)n2ccc(C(=O)NCc3ccn(C)n3)c2)c(Cl)c1 [Compound 117, 1-(2-chloro-4-methoxybenzene-1-sulfonyl)-N-[(1-methyl-1H-pyrazol-3-yl)methyl]-1H-pyrrole-3-carboxamide] | 1500 nM | 21 mV |
| COc1ccc(S(=O)(=O)n2ccc(C(=O)NCc3ncc(C)cn3)c2)c(Cl)c1 [Compound 118, 1-(2-chloro-4-methoxybenzene-1-sulfonyl)-N-[(5-methylpyrimidin-2-yl)methyl]-1H-pyrrole-3-carboxamide] | 2500 nM | 20 mV |
